Experiments:
[1] = system: IL-17 secretion from human PBMCs; assay: Human IL-17 production assay using human PBMC; assay type: cell-based; conditions: cytostim stimulation 72 h
Experimental: To confirm cellular on-target effects, we investigated the inhibition of selected RORγ antagonists on RORγ-regulated IL-17 secretion using human PBMC. Human IL-17-producing cells were readily formed following cytostim stimulation. In human PBMC stimulated with cytostim for 72 h, differentiation of Th17 cells was confirmed by increased secretion of IL-17 (291 pg/mL) in cell culture supernatant compared to basal level of IL-17 (20 pg/mL IL-17 without cytostim stimulation), […] of IL-17 secretion.
Human PBMCs (Zenbio) in TexMACS media were stimulated by cytostim (Miltenyi) for 72 h following the vendor's instruction. Human IL-17A in cell culture supernatant was measured using AlphaLISA human IL-17A Biotin-free detection kit (Perkin Elmer) according to the manufacturer’s protocol.

[2] = system: IL-17 secretion in mouse splenocyte; assay: Mouse IL-17 production assay using mouse splenocyte; assay type: cell-based; conditions: Th17 differentiation, 72 h, n = 3, read-out: inhibition of secretion of IL-17 in mouse splenocyte, average IC50
Experimental: To evaluate the impact of SHR168442 on IL-17 secretion in mouse cells, the mouse Th17 cell differentiation kit from R&D Systems was used to polarize the mouse spleen cells. Differentiation of Th17 cells in mouse splenocyte for 72 h was confirmed by secretion of IL-17 in culture supernatant, 93 pg/mL in average (2.7 pg/mL without differentiation), a 34-fold increase of IL-17 secretion.
Mouse splenocytes (Zenbio) were stimulated by Mouse Th17 Differentiation Media (R&D Systems) according to the manufacturer’s protocol. On day 5, compounds were added and then incubated for 72 h, and IL-17 in the supernatant was measured using IL-17A homodimer (mouse) AlphaLISA detection kit (Perkin Elmer) according to the manufacturer’s protocol.

Oral PK in SD rats = assay type: in vivo; conditions: male, rat, plasma, 2 mg/kg oral
Experimental: Compounds were dissolved in 5% DMSO, 5% tween 80 and then added 90% saline. Male SD rats were dosed with the compound via oral (2 mg/kg or 5 mg/kg) routes, respectively after fasting overnight. Blood of the animals were collected at indicated time post dosing. Blood samples were then prepared for plasma and analyzed for the compounds using validated LC/MS assays. The experimental protocol used in this study was approved by IACUC. The experiments were conducted in accordance with the Guiding Principles for the Care and Use of Laboratory Animals and complied with the ARRIVE guidelines.

Dermal PK, BALB/c mouse = assay type: in vivo; conditions: for Exposure in plasma: 2% in Vaseline, topical
Experimental: The dermal PK studies of Compound 1 in Vaseline were performed in dorsal skin of female C57BL/6 and male BALB/c mice via topical route. The skin (1.5 cm × 2 cm) was shaved one day prior to the dosing. At tissue collecting time point, the skin surface was decontaminated (twice with hand soap, twice with water, alternatively, and dried with tissue swabs). Stratum corneum is removed with tape strips for five times. The tissues were homogenized for PK analyses of Compound 1 by LC/MS.

[3] = system: IL-23-induced psoriasis-like skin inflammation mice; assay: IL-23-induced psoriasis-like skin inflammation mouse model, topical treatment; assay type: in vivo; conditions: for IL17 / IL-6 / TNFα / Thickness of the back skin: day 8, Mean ± SEM, n = 10
Experimental: Psoriasis was induced by intradermal injection of IL-23 on mouse skin as described by Rizzo et al.[19]. Three days later after shaving (day 1), two injections of IL-23 (0.5 µg protein per mouse) were performed on both sides of the dorsal skin (except naïve group) for 8 days. SHR168442 in Vaseline was topically applied daily starting three day before IL-23 injections, and then twice a day starting on the day of IL-23 injections. The mice were weighed daily, and the skin were scored daily on a scale from 0 to 4. At day 8, the skin thickness was measured in live mice with a caliper and the animal was sacrificed 3 h after the first topical application. The in-life portion of the study was carried out at Nanjing University (Nanjing, China). The experimental protocol used in this study was approved by IACUC in Nanjing, China. The experiments were conducted in accordance with the Guiding Principles for the Care and Use of Laboratory Animals and complied with the ARRIVE guidelines.
IL-17A, IL-6 and TNFα were determined in plasma collected at day 8 using a cytometric bead array (BD Biosciences) following the vendor's instruction.

ADORA2A = molecular target: T1, ADORA2A (Homo sapiens, UniProt P29274); assay: SAFETYscan47 Calcium Flux; assay type: cell-based; conditions: 3 µM
T1 construct: purchased DiscoverX (Eurofins) SAFETYscan47
Experimental: (§1) To further profile any off-target activity, we counter-screened SHR168442 in SAFETYscan47 panel, compiled by DiscoverX based on the recommendation by major pharmaceutical companies. SHR168442 was screened at 3 µM in duplicates.

GABAA = assay: SAFETYscan47 Ion Channel; assay type: cell-based; conditions: 3 µM
Experimental: as §1

hERG = molecular target: T2, hERG (Homo sapiens, UniProt Q12809); assay: SAFETYscan47 Ion Channel; assay type: cell-based; conditions: Blocker; 3 µM
T2 construct: purchased DiscoverX (Eurofins) SAFETYscan47
Experimental: as §1

T1 sequence (P29274 whole entry): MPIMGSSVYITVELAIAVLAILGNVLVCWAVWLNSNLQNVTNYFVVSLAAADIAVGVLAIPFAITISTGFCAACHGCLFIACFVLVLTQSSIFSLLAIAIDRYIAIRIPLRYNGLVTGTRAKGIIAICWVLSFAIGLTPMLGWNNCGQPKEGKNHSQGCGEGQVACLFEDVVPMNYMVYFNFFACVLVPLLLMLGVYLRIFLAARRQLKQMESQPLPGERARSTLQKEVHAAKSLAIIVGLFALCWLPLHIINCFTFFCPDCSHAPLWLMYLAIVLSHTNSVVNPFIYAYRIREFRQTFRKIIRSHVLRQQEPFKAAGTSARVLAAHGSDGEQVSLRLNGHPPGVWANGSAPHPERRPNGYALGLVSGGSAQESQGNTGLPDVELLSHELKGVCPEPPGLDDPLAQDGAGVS
T2 sequence (Q12809 whole entry): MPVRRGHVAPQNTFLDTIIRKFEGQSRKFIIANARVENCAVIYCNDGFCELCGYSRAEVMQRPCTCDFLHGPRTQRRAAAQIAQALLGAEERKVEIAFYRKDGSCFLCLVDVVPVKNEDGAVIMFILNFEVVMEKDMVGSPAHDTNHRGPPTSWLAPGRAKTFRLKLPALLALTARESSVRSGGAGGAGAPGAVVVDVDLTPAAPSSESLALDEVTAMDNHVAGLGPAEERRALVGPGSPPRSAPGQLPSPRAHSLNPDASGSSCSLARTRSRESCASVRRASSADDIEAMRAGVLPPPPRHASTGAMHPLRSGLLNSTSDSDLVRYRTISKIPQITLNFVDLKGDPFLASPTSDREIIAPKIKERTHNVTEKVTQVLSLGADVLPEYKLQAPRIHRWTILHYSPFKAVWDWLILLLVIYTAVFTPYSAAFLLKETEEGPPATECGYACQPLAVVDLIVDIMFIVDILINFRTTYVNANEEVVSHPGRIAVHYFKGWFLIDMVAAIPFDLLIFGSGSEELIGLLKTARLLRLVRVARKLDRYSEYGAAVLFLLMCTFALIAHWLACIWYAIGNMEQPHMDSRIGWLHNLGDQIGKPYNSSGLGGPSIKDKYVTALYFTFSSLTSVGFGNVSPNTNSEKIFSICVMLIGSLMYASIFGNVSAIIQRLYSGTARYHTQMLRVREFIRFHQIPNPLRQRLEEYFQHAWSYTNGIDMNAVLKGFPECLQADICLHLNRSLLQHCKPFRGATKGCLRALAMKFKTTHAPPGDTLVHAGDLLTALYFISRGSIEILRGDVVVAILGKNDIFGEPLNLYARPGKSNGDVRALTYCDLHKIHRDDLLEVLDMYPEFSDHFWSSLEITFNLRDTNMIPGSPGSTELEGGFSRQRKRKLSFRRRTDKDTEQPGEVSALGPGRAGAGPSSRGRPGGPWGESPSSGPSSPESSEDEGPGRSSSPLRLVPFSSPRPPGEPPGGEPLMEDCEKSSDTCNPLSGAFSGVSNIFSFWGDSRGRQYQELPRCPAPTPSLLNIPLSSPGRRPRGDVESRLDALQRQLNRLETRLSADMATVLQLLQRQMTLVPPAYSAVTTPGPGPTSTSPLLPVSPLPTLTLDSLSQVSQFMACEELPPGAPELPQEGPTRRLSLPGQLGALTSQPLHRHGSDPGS

For `CCS(=O)(=O)c1ccc([C@H](CCO)c2nc3c(Cl)c(N4CCC(F)(F)CC4)c(Cl)cc3[nH]2)cc1` [SHR168442, (S)-3-(4,6-dichloro-5-(4,4-difluoropiperidin-1-yl)-1H-benzo[d]imidazol-2-yl)-3-(4-(ethylsulfonyl)phenyl)propan-1-ol], the EC50 [1] was 20 ± 6 nM, the IC50 [1] was 20 nM and the IC50 [2] was 54 ± 12 nM. It also gave an AUC (Oral PK in SD rats; read-out: Exposure in SD Rat, AUC) of 59 ng·h/mL, a Cmax (Oral PK in SD rats; read-out: Exposure in SD Rat, Cmax) of 9.5 ng/mL and a half-life (Oral PK in SD rats; read-out: Exposure in SD Rat, t1/2 (converted)) of 6.2 h. For the same compound, the Exposure in plasma (Dermal PK, BALB/c mouse; 3 h) was “blq (below limit of quantitation (< 6 ng/mL))”, the Exposure in plasma (Dermal PK, BALB/c mouse; 6 h) was “blq (below limit of quantitation (< 6 ng/mL))” and the concentration at 3 h (Dermal PK, BALB/c mouse; male, BALB/c, mouse, in vivo) was 2460 ng/g. It also gave a concentration at 6 h (Dermal PK, BALB/c mouse; male, BALB/c, mouse, in vivo) of 4390 ng/g, an IL17 ([3]; 0.5% in Vaseline topical) of 190 ± 28 fg/mL and an IL-6 ([3]; 0.5% in Vaseline topical) of 124 ± 32 fg/mL. The TNFα ([3]; 0.5% in Vaseline topical) was 5495 ± 837 fg/mL, the “Thickness of the back skin” value ([3]; 0.5% in Vaseline topical) was 0.452 ± 0.020 mm and the clinical scores ([3]; 0.5%, 2%, 8% in Vaseline topical, scale 0 to 4) was “reduce clinical scores in a dose-dependent manner”. It also gave an IL17 ([3]; 2% in Vaseline topical) of 172 ± 38 fg/mL, an IL-6 ([3]; 2% in Vaseline topical) of 112 ± 43 fg/mL and a TNFα ([3]; 2% in Vaseline topical) of 4284 ± 804 fg/mL. The “Thickness of the back skin” value ([3]; 2% in Vaseline topical) was 0.436 ± 0.019 mm, the IL17 ([3]; 8% in Vaseline topical) was 185 ± 35 fg/mL and the IL-6 ([3]; 8% in Vaseline topical) was 123 ± 37 fg/mL. For the same compound, the TNFα ([3]; 8% in Vaseline topical) was 3380 ± 491 fg/mL, the “Thickness of the back skin” value ([3]; 8% in Vaseline topical) was 0.330 ± 0.015 mm and the “reduction of skin thickness” value ([3]; 8% topical, relative to vehicle and naïve group) was 97%. For the same compound, the body weight ([3]; all treatment groups) was “no significant body weight loss”, the “% Response Average” value (ADORA2A; Agonist) was 7.3% and the “% Response Replicate 1” value (ADORA2A; Agonist) was 0.0%. For the same compound, the “% Response Replicate 2” value (ADORA2A; Agonist) was 14.7%, the “% Response Average” value (ADORA2A; Antagonist) was 15.1% and the “% Response Replicate 1” value (ADORA2A; Antagonist) was 5.4%. The “% Response Replicate 2” value (ADORA2A; Antagonist) was 24.9%, the “% Response Average” value (GABAA; Blocker) was 7.4% and the “% Response Replicate 1” value (GABAA; Blocker) was 4.6%. For the same compound, the “% Response Replicate 2” value (GABAA; Blocker) was 10.1%, the “% Response Average” value (GABAA; Opener) was 2.5% and the “% Response Replicate 1” value (GABAA; Opener) was 3.2%. For the same compound, the “% Response Replicate 2” value (GABAA; Opener) was 1.9%, the “% Response Average” value (hERG) was 4.9% and the “% Response Replicate 1” value (hERG) was 6.5%. The “% Response Replicate 2” value (hERG) was 3.2%.
